In patent publication US20240293367A1, “METHODS OF TREATING DISORDERS WITH A […]” (Cybin IRL Limited, priority 2023, published 2024):
Where “and” joins values, the source holds several entries; their conditions need not be identical. Identical values can stand only once.

Assays:
[1] = VAS ratings of 'Any drug effect' in the Phase I/IIa study; format: in vivo, human
From the text: The visual analogue scale (VAS) is a psychometric response scale that can be used in questionnaires. It is a measurement instrument for subjective characteristics or attitudes that cannot be directly measured. When responding to a VAS item, respondents specify their level of agreement to a statement by indicating a position along a continuous line between two end points, usually a horizontal 100-mm line marked from “not at all,” “definitely not,” or the like, on the left to “extremely,” “definitely so,” or the like, on the right. The Bond and Lader VAS involves the subject indicating (with vertical marks) on sixteen horizontal 100-mm visual analogue scales how he/she feels. From these measurements, three main factors are calculated as described by Bond and Lader: alertness (from nine scores), contentedness (often called mood; from five scores), and calmness (from two scores). The Bowdle VAS and Drug Rating VAS provides the subject with items of the drug rating questionnaire: feel drug, like drug, and dislike drug. The VAS any drug effect involves the subject indicating (with vertical marks) on horizontal 100-mm visual analogue scales with the any drug effects item (“I can feel any drug effect”). In some embodiments, the subject has a maximum VAS score (e.g., Bond and Lader VAS, Bowdle VAS and Drug Rating VAS, and/or VAS any drug effect) of ≥60 mm after treatment. In some embodiments, the subject has a VAS score (e.g., Bond and Lader VAS, Bowdle VAS and Drug Rating VAS, and/or VAS any drug effect) of greater than or equal to 60 mm, 65 mm, 70 mm, 75 mm, 80 mm, 85 mm, 90 mm, or 95 mm, after treatment. In some embodiments, at least 50%, at least 55%, at least 60%, at least 65%, at least 70%, at least 75%, at least 80%, at least 85%, at least 90% of subjects treated with the methods described herein report a maximum VAS score (e.g., Bond and Lader VAS, Bowdle VAS and Drug Rating VAS, and/or VAS any drug effect) of greater than or equal to 60 mm, 65 mm, 70 mm, 75 mm, 80 mm, 85 mm, 90 mm, or 95 mm following treatment. In some embodiments, the subject has a maximum VAS any drug effect score of ≥60 mm after treatment. In some embodiments, the subject has a VAS any drug effect score of greater than or equal to 60 mm, 65 mm, 70 mm, 75 mm, 80 mm, 85 mm, 90 mm, or 95 mm, after treatment. In some embodiments, at least 50%, at least 55%, at least 60%, at least 65%, at least 70%, at least 75%, at least 80% of subjects treated with the methods described herein report a maximum VAS any drug effect score of greater than or equal to 60 mm, 65 mm, 70 mm, 75 mm, 80 mm, 85 mm, 90 mm, or 95 mm following treatment.
A visual analogue scale will be completed by all participants on each day of dosing (Day 1 and Day 8 or Day 22) and will consist of a 100 mm bipolar line with the far left side of the line marked not at all, and the far right side of the line marked extremely. Participants will be asked “Right now, do you feel any drug effects at all?” and participants in response will make a vertical mark on the line on study dosing days predose and at 0.5, 1, 2, 4, 6, 8 and 12 hours postdose.

[2] = Safety and tolerability (adverse events) in the Phase I/IIa study
[3] = all cohorts, psilocin-d10 n = 35
[4] = oral, equivalent doses, male Beagle dogs

[2H]C([2H])([2H])N(C([2H])([2H])[2H])C([2H])([2H])C([2H])([2H])c1c[nH]c2cccc(O)c12 [psilocin-d10, 3-(2-(bis(methyl-d3)amino)ethyl-1,1,2,2-d4)-1H-indol-4-ol]
subjects reporting maximum VAS-Any drug effect readings above 60 mm ([1]; 8 mg oral, Cohort 2, 4 healthy volunteers): 75%
Observed Mean Maximum VAS - Any drug effect ([1]; 8 mg oral, Cohort 2 Day 8, NHV, N = 4): 77.2
individual VAS-Any drug effect scores of subjects with meaningful scores ([1]; 8 mg, Cohort 2): 100 mm and 97 mm and 89 mm
subjects reporting maximum VAS-Any drug effect readings above 60 mm ([1]; 10 mg oral, Cohort 3, 3 healthy volunteers): 66%
Observed Mean Maximum VAS - Any drug effect ([1]; 10 mg oral, Cohort 3 Day 8, NHV, N = 3): 78.3
individual VAS-Any drug effect scores of subjects with meaningful scores ([1]; 10 mg, Cohort 3): 100 mm
Observed Mean Maximum VAS - Any drug effect ([1]; 12 mg oral, Cohorts 4 and 5 MDD, Day 1 or Day 22, blinded data incl. placebo subjects): 80.7 and 80.7^3
median maximum VAS-Any drug effect score ([1]; 12 mg, Cohorts 4 and 5 MDD): 100 mm
Observed Mean Maximum VAS - Any drug effect ([1]; 16 mg oral, Cohort 6 MDD, Day 1 or Day 22, blinded data incl. placebo subjects, excluding vomited doses): 89.2 and 89.2^2,3
median maximum VAS-Any drug effect score ([1]; 16 mg, Cohort 6 MDD): 100 mm
subjects reporting maximum VAS-Any drug effect readings above 60 mm ([1]; 16 mg, Cohort 6 MDD): 79.2%
nausea at least possibly related to study treatment ([2]; 8 mg): 2 out of 4
nausea at least possibly related to study treatment ([2]; 12 mg): 6 out of 24
nausea at least possibly related to study treatment ([2]; 16 mg): 3 out of 12
headache at least possibly related to study treatment ([2]; Cohort 3): 1 subject
headache at least possibly related to study treatment ([2]; Cohort 4): 1 subject
vomiting at least possibly related to study treatment ([2]; Cohort 4): 1 subject
vomiting at least possibly related to study treatment ([2]; Cohort 6): 3 subjects
discontinuation due to AEs ([2]; all cohorts): No participants discontinued due to AEs
Drug-related, treatment-emergent adverse events: At least one AE ([2]; all cohorts incl. healthy volunteers, psilocin-d10 n = 35): 21 (60.0) n (%)
Drug-related TEAE: Affect lability [2, 3]: 1 (2.9) n (%)
Drug-related TEAE: Anxiety [2, 3]: 2 (5.7) n (%)
Drug-related TEAE: Blood pressure increased [2, 3]: 5 (14.3) n (%)
Drug-related TEAE: Confusional state [2, 3]: 1 (2.9) n (%)
Drug-related TEAE: Dizziness [2, 3]: 1 (2.9) n (%)
Drug-related TEAE: Eructation [2, 3]: 1 (2.9) n (%)
Drug-related TEAE: Headache [2, 3]: 3 (8.6) n (%)
Drug-related TEAE: Nasal congestion [2, 3]: 1 (2.9) n (%)
Drug-related TEAE: Nausea [2, 3]: 6 (17.1) n (%)
Drug-related TEAE: Panic Attack [2, 3]: 1 (2.9) n (%)
Drug-related TEAE: Tachycardia [2, 3]: 1 (2.9) n (%)
Drug-related TEAE: Vomiting [2, 3]: 2 (5.7) n (%)
tolerability ([2]; dosage levels up to 16 mg, 8 healthy volunteers and 38 participants with MDD): well tolerated without significant adverse effects
difference in systemic exposure versus psilocin (dogs): ~30%
higher concentration (Cmax) compared to psilocin after psilocybin [4]: 31%
higher exposure (AUC) compared to psilocin after psilocybin [4]: 38%
oral availability (oral, female dogs): 91.3%
